Usually IC50 stands for the point on the concentration scale where inhibition reaches its midpoint.

The source of these data is patent US10183053B1, “Multi-component formulations” (priority 2017, dated 2019).

Series [1] concerns human stem cell derived neurons. The series can be described thus: Cell viability of human stem cell derived neurons treated with multi-component formulations (Hoechst/propidium iodide, ArrayScan VTI). Type of series: cell-based. The method, then:
Cryopreserved human stem cell derived neurons obtained from PhoenixSongs Biologicals were thawed and plated at a density of 12000 cells per well in a 384-well PDL/laminin coated plate. The neurons were maintained in a humidified environment at 37° C. with 5% CO2 for six days with periodic media changes before experimental procedures were performed. […] Cells were dosed in triplicate with 10-point dose response curves to determine if there was any protective effect (improved survival of cells) or toxicity with the test compounds versus the untreated cells. A positive control (chlorpromazine) was also used to assess cytotoxicity response in these cells. After a three-day incubation with test compositions, the cells were stained with Hoechst and propidium iodide and read on an ArrayScan VTI to determine cell viability. Results were normalized to vehicle and graphed using GraphPad Prism. […]

In series [2] the test system is primary chicken neurons. The series can be described thus: MTT cell viability assay in primary chicken neurons. The conditions noted are these: for concentration above which cell viability declined: compared to vehicle control, FIG. 5, FIG. 6; for Cell viability, Mean: no MSM nor FDP, 48 h. It is filed as cell-based. The method, then: Fertilized chicken eggs were stored under turning at 37.8° C. and 55% humidity until embryonic day eight. Embryos were transferred to a plastic dish and decapitated. Both hemispheres were removed, collected and cleaned from any loose tissue. Hemispheres were mechanically dissociated and 4.8×10^4 cells per well (96-well plates) were seeded in a volume of 160 μL. The cell culture medium consisted of Dubelcco's Modified Eagle's Medium with […], 5% Nu Serum, 0.01% gentamycin and 2 mM L-glutamine. Cultures were maintained at 37° C., 95% humidity and 5% CO2.
Test compositions and vehicle controls were applied to chicken neurons at day-in-vitro 8 for 48 h. On day-in-vitro 10 the viability of neurons was determined according to MTT cell viability assay using a plate reader (570 nm). That assay allows the measurement of the mitochondrial dehydrogenase activity, which reduces yellow MTT to dark blue formazan crystals. Since this reaction is catalyzed in living cells only, this assay is used for the determination of cell viability. MTT solution was added to each well in a final concentration of 0.5 mg/mL. After two hours the MTT-containing medium is aspired. Cells were lysed in 3% SDS and the formazan crystals were dissolved in isopropanol/HCl. Optical density was measured with a plate reader at 570 nm. Cell survival rage was expressed as optical density (OS). Values were calculated as percent of control values (vehicle control, which is medium).
Using the same protocol as in Example 2, primary chicken neurons were treated with varying concentrations of methylsulfonylmethane and/or fructose 1,6-diphosphate. Cell viability was determined with the MTT assay.
Using the protocol of Example 2, a formulation containing methylsulfonylmethane (0.1 μM), D-fructose 1,6-diphosphate trisodium salt hydrate (1 μM), and rutin (0.001 μM) was tested for cell viability in primary chicken neurons. Vehicle control (medium) and methylsulfonylmethane with fructose 1,6-diphosphate compositions were also tested. The results appear in FIG. 12.

In the case of `CN(C)CCCN1c2ccccc2Sc2ccc(Cl)cc21` [Chlorpromazine, chlorpromazine], the IC50 in series [1] (Homo sapiens, Neuron, 72 h, three-day incubation, formulations in medium with MSM 0.1 μM and FDP 1 μM, chlorpromazine without MSM and FDP, read-out: IC50 for Cell Loss) turned out to be 3.8 µM. Also, in series [1] (at comparable concentrations), the “neuron cell toxicity / safety (in words)” value is listed as “relatively high neuron cell toxicity”.
For `O=C(COP(=O)(O)O)[C@@H](O)[C@H](O)[C@H](O)COP(=O)(O)O` [FDP, fructose 1,6-diphosphate], the “concentration above which cell viability declined” value in series [2] is “above 0.1 mM”.
Turning to `CS(C)(=O)=O` [MSM, methylsulfonylmethane], the “concentration above which cell viability declined” value in series [2] was “above 5 mM”.
On to `C[C@@H]1O[C@@H](OC[C@H]2O[C@@H](Oc3c(-c4ccc(O)c(O)c4)oc4cc(O)cc(O)c4c3=O)[C@H](O)[C@@H](O)[C@@H]2O)[C@H](O)[C@H](O)[C@H]1O` [Rutin, quercetin-3-O-rutinoside], for which the “Cell viability, Mean” value in series [2] (rutin 0.001 (μM), vehicle alone) is reported as 96.7% of control; in series [2] (rutin 0.01, vehicle alone) it was 99.7% of control; in series [2] (rutin 0.1, vehicle alone) it was 98.1% of control; in series [2] (rutin 1, vehicle alone) it was 97.7% of control; in series [2] (rutin 10, vehicle alone), 100.2% of control.
